Results published in patent US9469650B2, “Melampomagnolide B derivatives” (BOARD OF TRUSTEES OF THE UNIVERSITY OF ARKANSAS, priority 2013, dated 2016).

Key:
786-0 = test: panel of 60 human tumor cell lines, growth inhibition (Renal Cancer)
SK-OV-3 = test: panel of 60 human tumor cell lines, growth inhibition (Ovarian Cancer)
CCRF-CEM = test: panel of 60 human tumor cell lines, growth inhibition (Leukemia)
OVCAR-5 = test: panel of 60 human tumor cell lines, growth inhibition (Ovarian Cancer)
UO-31 = test: panel of 60 human tumor cell lines, growth inhibition (Renal Cancer)
A498 = test: as above
T-47D = test: panel of 60 human tumor cell lines, growth inhibition (Breast Cancer); settings: for Percent Growth: T-47D
HCT-116 = test: panel of 60 human tumor cell lines, growth inhibition (Colon Cancer); settings: for Percent Growth: HCT-116
NCI-H522 = test: panel of 60 human tumor cell lines, growth inhibition (Non-Small Cell Lung Cancer)
RXF 393 = test: panel of 60 human tumor cell lines, growth inhibition (Renal Cancer); settings: for Percent Growth: RXF 393

Compound: C=C1C(=O)O[C@H]2[C@H]1CC/C(COC(=O)CCC(=O)NCc1ccc(Cl)nc1)=C\CC[C@@]1(C)O[C@@H]21 [JVM 96]
- Percent Growth (786-0; 786-0, Log10 Concentration −8.0): 94%
- GI50 (786-0; Homo sapiens, 786-0): 4.43 µM
- CC50 (786-0; Homo sapiens, 786-0, read-out: LC50): 44.4 µM
- IC (TGI) (786-0; Homo sapiens, 786-0, read-out: TGI): 16.6 µM
- GI50 (SK-OV-3; Homo sapiens, SK-OV-3): 28 µM
- CC50 (SK-OV-3; Homo sapiens, SK-OV-3, read-out: LC50): > 100 µM
- IC (TGI) (SK-OV-3; Homo sapiens, SK-OV-3, read-out: TGI): 70.5 µM
- Percent Growth (SK-OV-3; SK-OV-3, Log10 Concentration −4.0): −19%
- Percent Growth (SK-OV-3; SK-OV-3, Log10 Concentration −5.0): 106%
- Percent Growth (SK-OV-3; SK-OV-3, Log10 Concentration −6.0): 106%
- Percent Growth (SK-OV-3; SK-OV-3, Log10 Concentration −7.0): 104%
- Percent Growth (SK-OV-3; SK-OV-3, Log10 Concentration −8.0): 99%
- GI50 (CCRF-CEM; Homo sapiens): 2.2 µM
- CC50 (CCRF-CEM; Homo sapiens, read-out: LC50): > 100 µM
- IC (TGI) (CCRF-CEM; Homo sapiens, read-out: TGI): 7.66 µM
- Percent Growth (CCRF-CEM; Log10 Concentration −4.0): −49%
- Percent Growth (CCRF-CEM; Log10 Concentration −5.0): −11%
- Percent Growth (CCRF-CEM; Log10 Concentration −6.0): 82%
- Percent Growth (CCRF-CEM; Log10 Concentration −7.0): 100%
- Percent Growth (CCRF-CEM; Log10 Concentration −8.0): 99%
- GI50 (OVCAR-5; Homo sapiens, OVCAR-5): 12.1 µM
- CC50 (OVCAR-5; Homo sapiens, OVCAR-5, read-out: LC50): 60.5 µM
- IC (TGI) (OVCAR-5; Homo sapiens, OVCAR-5, read-out: TGI): 27.1 µM
- Percent Growth (OVCAR-5; OVCAR-5, Log10 Concentration −4.0): −81%
- Percent Growth (OVCAR-5; OVCAR-5, Log10 Concentration −5.0): 62%
- Percent Growth (OVCAR-5; OVCAR-5, Log10 Concentration −6.0): 89%
- Percent Growth (OVCAR-5; OVCAR-5, Log10 Concentration −7.0): 84%
- Percent Growth (OVCAR-5; OVCAR-5, Log10 Concentration −8.0): 93%
- GI50 (UO-31; Homo sapiens, UO-31): 10.2 µM
- CC50 (UO-31; Homo sapiens, UO-31, read-out: LC50): 53.7 µM
- IC (TGI) (UO-31; Homo sapiens, UO-31, read-out: TGI): 23.4 µM
- Percent Growth (UO-31; UO-31, Log10 Concentration −4.0): −87%
- Percent Growth (UO-31; UO-31, Log10 Concentration −5.0): 51%
- Percent Growth (UO-31; UO-31, Log10 Concentration −6.0): 92%
- Percent Growth (UO-31; UO-31, Log10 Concentration −7.0): 88%
- Percent Growth (UO-31; UO-31, Log10 Concentration −8.0): 87%
- Percent Growth (A498; A498, Log10 Concentration −4.0): −95%
- Percent Growth (A498; A498, Log10 Concentration −5.0): 74%
- Percent Growth (A498; A498, Log10 Concentration −6.0): 95%
- Percent Growth (A498; A498, Log10 Concentration −7.0): 107%
- Percent Growth (A498; A498, Log10 Concentration −8.0): 96%
- GI50 (A498; Homo sapiens, A498): 13.9 µM
- CC50 (A498; Homo sapiens, A498, read-out: LC50): 54.2 µM
- IC (TGI) (A498; Homo sapiens, A498, read-out: TGI): 27.5 µM
- GI50 (T-47D; Homo sapiens, T47D): 3.52 µM
- CC50 (T-47D; Homo sapiens, T47D, read-out: LC50): 55.9 µM
- IC (TGI) (T-47D; Homo sapiens, T47D, read-out: TGI): 14.4 µM
- Percent Growth (T-47D; Log10 Concentration −4.0): −71%
- Percent Growth (T-47D; Log10 Concentration −5.0): 13%
- Percent Growth (T-47D; Log10 Concentration −6.0): 94%
- Percent Growth (T-47D; Log10 Concentration −7.0): 100%
- Percent Growth (T-47D; Log10 Concentration −8.0): 100%
- Percent Growth (HCT-116; Log10 Concentration −4.0): −100%
- Percent Growth (HCT-116; Log10 Concentration −5.0): 13%
- Percent Growth (HCT-116; Log10 Concentration −6.0): 97%
- Percent Growth (HCT-116; Log10 Concentration −7.0): 93%
- Percent Growth (HCT-116; Log10 Concentration −8.0): 97%
- GI50 (HCT-116; Homo sapiens, HCT-116, HCT-116): 3.62 µM
- CC50 (HCT-116; Homo sapiens, HCT-116, read-out: LC50): 36.2 µM
- IC (TGI) (HCT-116; Homo sapiens, HCT-116, read-out: TGI): 13.1 µM
- GI50 (NCI-H522; Homo sapiens, NCI-H522): 1.6 µM
- CC50 (NCI-H522; Homo sapiens, NCI-H522, read-out: LC50): 7.82 µM
- IC (TGI) (NCI-H522; Homo sapiens, NCI-H522, read-out: TGI): 3.54 µM
- Percent Growth (NCI-H522; NCI-H522, Log10 Concentration −4.0): −78%
- Percent Growth (NCI-H522; NCI-H522, Log10 Concentration −5.0): −66%
- Percent Growth (NCI-H522; NCI-H522, Log10 Concentration −6.0): 80%
- Percent Growth (NCI-H522; NCI-H522, Log10 Concentration −7.0): 102%
- Percent Growth (NCI-H522; NCI-H522, Log10 Concentration −8.0): 101%
- GI50 (RXF 393; Homo sapiens, RXF 393, RXF 393): 3.57 µM
- CC50 (RXF 393; Homo sapiens, RXF 393, read-out: LC50): 48.4 µM
- IC (TGI) (RXF 393; Homo sapiens, RXF 393, read-out: TGI): 14.4 µM
- Percent Growth (RXF 393; Log10 Concentration −4.0): −80%
- Percent Growth (RXF 393; Log10 Concentration −5.0): 15%
- Percent Growth (RXF 393; Log10 Concentration −6.0): 93%
- Percent Growth (RXF 393; Log10 Concentration −7.0): 100%
- Percent Growth (RXF 393; Log10 Concentration −8.0): 93%
